Reference: patent publication US10538508B2, “Substituted amino triazoles useful as human chitinase inhibitors” (OncoArendi Therapeutics S.A., priority 2015, dated 2020)

Tests used:
recombinant human CHIT1 = recombinant human CHIT1 (Homo sapiens (Human), UniProt Q13231); test: Human CHIT1 Activity Assay; type: biochemical; conditions: recombinant human CHIT1, citrate buffer pH 5.2, 37° C., 60 minutes; read-out: Activity on hCHIT1, IC50
recombinant human AMCase = recombinant human AMCase (Homo sapiens (Human), UniProt Q9BZP6); test: Human AMCase Activity Assay; type: biochemical; conditions: citrate buffer pH 5.2, 37° C., 60 minutes, read-out: Activity on hAMCase, IC50
Sequence of recombinant human AMCase (Q9BZP6 22-476): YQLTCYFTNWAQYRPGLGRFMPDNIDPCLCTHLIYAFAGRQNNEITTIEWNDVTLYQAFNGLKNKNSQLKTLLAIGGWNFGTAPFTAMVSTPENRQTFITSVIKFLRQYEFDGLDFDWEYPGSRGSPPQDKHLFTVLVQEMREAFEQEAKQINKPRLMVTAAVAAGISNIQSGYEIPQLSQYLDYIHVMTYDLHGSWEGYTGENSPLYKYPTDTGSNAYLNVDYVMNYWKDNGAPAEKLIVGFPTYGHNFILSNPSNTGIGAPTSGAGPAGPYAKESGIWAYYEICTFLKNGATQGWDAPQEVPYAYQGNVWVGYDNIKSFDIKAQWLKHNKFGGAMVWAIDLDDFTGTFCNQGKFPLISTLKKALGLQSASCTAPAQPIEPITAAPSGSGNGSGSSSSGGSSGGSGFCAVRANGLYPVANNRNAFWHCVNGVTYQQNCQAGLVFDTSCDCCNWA

Sequence of recombinant human CHIT1 (Q13231 22-466): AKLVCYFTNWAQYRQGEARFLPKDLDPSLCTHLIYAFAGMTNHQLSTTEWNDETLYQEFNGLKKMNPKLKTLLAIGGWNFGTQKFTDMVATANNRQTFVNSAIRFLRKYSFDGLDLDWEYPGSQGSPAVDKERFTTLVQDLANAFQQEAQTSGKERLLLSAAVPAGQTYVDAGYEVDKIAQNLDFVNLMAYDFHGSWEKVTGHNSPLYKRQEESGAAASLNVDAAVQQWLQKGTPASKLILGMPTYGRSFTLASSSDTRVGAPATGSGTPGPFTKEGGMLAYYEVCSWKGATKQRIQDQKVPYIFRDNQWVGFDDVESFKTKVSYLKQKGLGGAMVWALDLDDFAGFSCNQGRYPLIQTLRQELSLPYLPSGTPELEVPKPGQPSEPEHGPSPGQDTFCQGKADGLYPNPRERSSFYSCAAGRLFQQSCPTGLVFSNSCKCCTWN

SMILES	IC50 (recombinant human CHIT1) [µM]	IC50 (recombinant human AMCase) [µM]
COC(C)(C)[C@H]1CN(C2CCN(c3nnc(N)[nH]3)CC2)[C@@H](Cc2ccc(Cl)cc2)CO1 [Example 14, 5-(4-((2R,5S)-5-(4-chlorobenzyl)-2-(2-methoxypropan-2-yl)morpholino)piperidin-1-yl)-4H-1,2,4-triazol-3-amine]	< 0.1	
CN1C[C@H](Cc2ccc(Cl)cc2)N(C2CCN(c3nnc(N)[nH]3)CC2)C[C@@H]1Cc1ccc(Cl)cc1 [Example 31, 5-(4-((2S,5S)-2,5-bis(4-chlorobenzyl)-4-methylpiperazin-1-yl)piperidin-1-yl)-4H-1,2,4-triazol-3-amine]		< 0.1
CN1C[C@H](Cc2ccc(Cl)cc2)N(C2CCN(c3nnc(N)[nH]3)CC2)C[C@@H]1CC1CCCCC1 [Example 32, 5-(4-((2 S, 5S)-2-(4-chlorobenzyl)-5-(cyclohexylmethyl)-4-methylpiperazin-1-yl)piperidin-1-yl)-4H-1,2,4-triazol-3-amine]		< 0.1
CC(C)C[C@H]1CN(C2CCN(c3nnc(N)[nH]3)CC2)[C@@H](Cc2ccc(Cl)cc2)CN1C [Example 33, 5-(4-((2S,5S)-2-(4-chlorobenzyl)-5-isobutyl-4-methylpiperazin-1-yl)piperidin-1-yl)-4H-1,2,4-triazol-3-amine]		< 0.1
C[C@H]1CN(C2CCN(c3nnc(N)[nH]3)CC2)[C@@H](Cc2ccc(Cl)cc2)CN1S(C)(=O)=O [Example 37, 5-(4-((2S,5S)-2-(4-chlorobenzyl)-5-methyl-4-(methylsulfonyl)piperazin-1-yl)piperidin-1-yl)-4H-1,2,4-triazol-3-amine]	10 to 100	
COC(=O)N1C[C@H](Cc2ccc(Cl)cc2)N(C2CCN(c3nnc(N)[nH]3)CC2)C[C@@H]1C [Example 39, methyl (2S,5S)-4-(1-(5-amino-4H-1,2,4-triazol-3-yl)piperidin-4-yl)-5-(4-chlorobenzyl)-2-methylpiperazine-1-carboxylate]	10 to 100	
COC(=O)CN1C[C@H](Cc2ccc(Cl)cc2)N(C2CCN(c3nnc(N)[nH]3)CC2)C[C@@H]1C [Example 40, methyl 2-((2S,5S)-4-(1-(5-amino-4H-1,2,4-triazol-3-yl)piperidin-4-yl)-5-(4-chlorobenzyl)-2-methylpiperazin-1-yl)acetate]	0.1 to 1	
C[C@H]1CN(C2CCN(c3nnc(N)[nH]3)CC2)[C@@H](Cc2ccc(Cl)cc2)C(C)(C)O1 [Example 53, 5-(4-((3S,6S)-3-(4-chlorobenzyl)-2,2,6-trimethylmorpholino)piperidin-1-yl)-4H-1,2,4-triazol-3-amine]	10 to 100	
